Measured values from patent publication US20260116910A1, “POLYCYCLIC COMPOUNDS AND METHODS THEREOF” (HEPAITECH (BEIJING) BIOPHARMA TECHNOLOGY CO., LTD., priority 2021, published 2026).
Where two headings read alike, the source gives them in different places.

Assays:
Format in all cases: cell-based
[1] = biological target: MRGPRX4 (Homo sapiens, UniProt Q96LA9); test: MRGPRX4 activation, Fluo-8 Ca2+ FLIPR assay in HEK293T cells stably expressing MRGPRX4; parameters: key to MRGPRX4 activation, Average / MRGPRX4 activation, Ave.: fluorescence change dF/F0; settings: for EC50: MRGPRX4 activation, Ca2+ fluorescence, no activation in tested range reported as III, read-out: Activity (EC50 μM)
Chain of MRGPRX4 (Q96LA9 whole entry): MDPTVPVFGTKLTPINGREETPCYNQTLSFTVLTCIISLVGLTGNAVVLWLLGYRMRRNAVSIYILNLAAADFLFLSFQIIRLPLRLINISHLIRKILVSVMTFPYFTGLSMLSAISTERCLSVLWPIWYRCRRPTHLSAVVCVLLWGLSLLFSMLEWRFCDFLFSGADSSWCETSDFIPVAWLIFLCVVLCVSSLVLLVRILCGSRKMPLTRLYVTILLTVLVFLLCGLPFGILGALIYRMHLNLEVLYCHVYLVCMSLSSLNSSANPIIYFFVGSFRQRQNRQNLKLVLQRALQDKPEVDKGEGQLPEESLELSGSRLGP
Method in brief: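 Response measured as dF/F0: 30 s baseline, then 150 s after compound addition on FLIPR Tetra, in HHBS after 40-60 min room-temperature loading with 2 μM Fluo-8 AM.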

[2] = biological target: T1, human TGR5 (Homo sapiens, UniProt Q8TDU6); test: TGR5 agonist assessment, CRE-NanoLuc reporter in HEK293T cells
T1 sequence (Q8TDU6 1-330): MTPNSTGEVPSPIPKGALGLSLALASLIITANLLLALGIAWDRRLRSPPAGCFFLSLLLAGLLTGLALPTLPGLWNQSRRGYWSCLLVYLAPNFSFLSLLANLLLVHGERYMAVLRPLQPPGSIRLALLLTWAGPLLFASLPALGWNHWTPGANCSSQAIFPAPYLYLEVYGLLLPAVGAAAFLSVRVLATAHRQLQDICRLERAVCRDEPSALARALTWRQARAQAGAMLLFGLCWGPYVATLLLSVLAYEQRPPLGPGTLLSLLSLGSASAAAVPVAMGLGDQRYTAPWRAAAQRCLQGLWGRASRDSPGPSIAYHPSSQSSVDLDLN
Experimental: Cells were detached by centrifuging (1000 rpm, 3 min). The pellet was re-suspended in medium, and cell density was adjusted to about 1×10^6 cells/mL. […] Cells in the microplates were cultured overnight.
Culture medium was replaced, and compounds were added to the wells. 0.01% DMSO (v/v) served as negative control. Plates were incubated at 37° C. in 5% CO2 for 24 hr.
In the following day, a 10 μL aliquot of cell culture medium was removed from each well and combined with 40 μL culture medium plus […] assay buffer (containing 20 mM of the luciferase substrate coelenterazine). After 5 min incubation, luminescence was measured using an EnVision plate reader (PerkinElmer).
In some embodiments, gradient diluted solutions of several concentrations were used to treat cells and corresponding responses were used to fit sigmoid function and to derive EC50 in Origin.

[3] = biological target: T2, human FXR (NR1H4) (Homo sapiens, UniProt Q96RI1); test: Human FXR (NR1H4) agonist assessment, FXRE-NanoLuc reporter in HEK293T cells; settings: for EC50: read-out: EC50
T2 sequence (Q96RI1 1-476 isoform Q96RI1-1): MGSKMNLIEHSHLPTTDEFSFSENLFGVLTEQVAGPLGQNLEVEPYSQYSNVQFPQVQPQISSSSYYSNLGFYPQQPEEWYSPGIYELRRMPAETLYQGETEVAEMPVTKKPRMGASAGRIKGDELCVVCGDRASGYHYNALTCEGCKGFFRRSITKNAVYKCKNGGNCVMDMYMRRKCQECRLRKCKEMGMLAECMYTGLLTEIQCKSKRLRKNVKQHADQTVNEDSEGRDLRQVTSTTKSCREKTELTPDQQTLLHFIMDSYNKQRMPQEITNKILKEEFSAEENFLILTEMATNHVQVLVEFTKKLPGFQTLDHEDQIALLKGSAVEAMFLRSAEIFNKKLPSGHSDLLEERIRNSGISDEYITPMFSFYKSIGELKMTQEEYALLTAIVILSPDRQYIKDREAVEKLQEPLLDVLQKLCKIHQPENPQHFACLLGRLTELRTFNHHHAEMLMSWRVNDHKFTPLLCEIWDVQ
Method in brief: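 Read-out was NanoLuc luminescence in culture medium, measured 5 min after adding coelenterazine. Cells were HEK293T stably carrying human FXR and an FXRE reporter, exposed to compound for 24 hr at 37 °C. Vehicle was 0.01% DMSO. EC50 was obtained from sigmoid fits of gradient dilutions.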

[4] = FXR activation, HEK293T FXRE-NanoLuc reporter, 24 hr

| SMILES | EC50 [1] [µM] | Efficacy (maximum measured induction of NanoLuc, normalized to CDCA set as 100%) [3, 4] | EC50 [3, 4] [µM] | MRGPRX4 activation, Average ([1]; E3-9, Conc. (Log[M]) −4.0) | MRGPRX4 activation, Average ([1]; E3-9, Conc. (Log[M]) −4.5) | MRGPRX4 activation, Average ([1]; E3-9, Conc. (Log[M]) −5.0) | MRGPRX4 activation, Average ([1]; E3-9, Conc. (Log[M]) −5.4) | MRGPRX4 activation, Average ([1]; E3-9, Conc. (Log[M]) −5.9) | MRGPRX4 activation, Average ([1]; E3-9, Conc. (Log[M]) −6.4) | MRGPRX4 activation, Average ([1]; E3-9, Conc. (Log[M]) −6.9) | MRGPRX4 activation, Average ([1]; E3-9, Conc. (Log[M]) −7.3) | MRGPRX4 activation, Average ([1]; E3-9, Conc. (Log[M]) −7.8) | MRGPRX4 activation, fluorescence change (dF/F0), Average ([1]; Conc. (Log[M]) −4) | MRGPRX4 activation, fluorescence change (dF/F0), Average ([1]; Conc. (Log[M]) −4.5) | MRGPRX4 activation, fluorescence change (dF/F0), Average ([1]; Conc. (Log[M]) −5) | MRGPRX4 activation, fluorescence change (dF/F0), Average ([1]; Conc. (Log[M]) −5.5) | MRGPRX4 activation, fluorescence change (dF/F0), Average ([1]; Conc. (Log[M]) −6) | MRGPRX4 activation, fluorescence change (dF/F0), Average ([1]; Conc. (Log[M]) −7) | MRGPRX4 activation, fluorescence change (dF/F0), Average ([1]; Conc. (Log[M]) −8) | MRGPRX4 activation, fluorescence change (dF/F0), Average ([1]; Conc. (Log[M]) −9) | also measured |
| --- | --- | --- | --- | --- | --- | --- | --- | --- | --- | --- | --- | --- | --- | --- | --- | --- | --- | --- | --- | --- | --- |
| CC[C@H]1[C@@H](O)[C@@H]2[C@H](CC[C@]3(C)[C@@H]([C@H](C)CCNC(=O)NS(=O)(=O)N(C)C)CC[C@@H]23)[C@@]2(C)CCCC[C@@H]12 [5-15] | > 100 | C (100%<efficacy <=300%) | < 1 |  |  |  |  |  |  |  |  |  |  |  |  |  |  |  |  |  | MRGPRX4 activation, Average ([1]; E3-6-2, 1st of 6 concentration columns (head not in rows shown)): 0.087; MRGPRX4 activation, Average ([1]; E3-6-2, 3rd of 6 concentration columns (head not in rows shown)): 0.013; MRGPRX4 activation, Average ([1]; E3-6-2, 6th of 6 concentration columns (head not in rows shown)): 0.010; MRGPRX4 activation, Average ([1]; E3-6-2, concentration not given): 0.010; EC50 [2]: 0.013 µM |
| CCOC(=O)C(=O)NCC[C@@H](C)[C@H]1CC[C@H]2[C@@H]3[C@H](O)[C@H](CC)[C@@H]4CCCC[C@]4(C)[C@H]3CC[C@]12C [compound 53] | > 100 | C (100%<efficacy <=300%) | < 1 | 0.030 | 0.016 | 0.013 | 0.020 | 0.011 | 0.013 | 0.013 | 0.013 | 0.008 |  |  |  |  |  |  |  |  | MRGPRX4 activation, Average ([1]; E3-9, Conc. (Log[M]) −8.3): 0.011 |
| CC[C@H]1[C@@H](O)[C@@H]2[C@H](CC[C@]3(C)[C@@H]([C@H](C)CCC(=O)O)CC[C@@H]23)[C@@]2(C)CCC(F)(F)C[C@@H]12 [compound 55] | > 100 | C (100%<efficacy <=300%) | < 1 | 0.006 | 0.004 | 0.018 | 0.023 | 0.019 | 0.019 | 0.016 | 0.019 | 0.016 |  |  |  |  |  |  |  |  | MRGPRX4 activation, Average ([1]; E3-9, Conc. (Log[M]) −8.3): 0.018 |
| CC[C@H]1[C@@H](O)[C@@H]2[C@H](CC[C@]3(C)[C@@H]([C@H](C)CO)CC[C@@H]23)[C@@]2(C)CCCC[C@@H]12 [compound 73] | > 100 | A (efficacy >400%) | 1 to 10 |  |  |  |  |  |  |  |  |  | 0.098 | 0.042 | −0.031 | −0.031 | −0.020 | −0.023 | −0.023 | −0.014 |  |
| C[C@H](CCCO)[C@H]1CC[C@H]2[C@@H]3CC[C@@H]4CCCC[C@]4(C)[C@H]3CC[C@]12C [compound 77] | > 100 |  | 1 to 10 |  |  |  |  |  |  |  |  |  | 0.067 | 0.014 | −0.029 | −0.023 | −0.017 | −0.009 | −0.014 | −0.012 | Efficacy (maximum measured induction of NanoLuc, normalized to CDCA set as 100%) [3]: B (key: A: efficacy >400%; B: 300%<efficacy <=400%; C: 100%<efficacy <=300%; D: efficacy <=100%) |
| C[C@H](CCCCC(=O)O)[C@H]1CC[C@H]2[C@@H]3CC[C@@H]4C[C@H](O)CC[C@]4(C)[C@H]3CC[C@]12C [compound 84] | < 50 | B (300%<efficacy <=400%) | 1 to 10 |  |  |  |  |  |  |  |  |  | 0.287 | 0.065 | 0.021 | −0.001 | 0.009 | −0.014 | 0.002 | −0.014 |  |
